Test results: the CheMixHub viscosity set

Experiment: xn = mol fraction of the nth substance listed

NC=O + CO
Conditions | viscosity [mPa·s]
298.15 K, 100 kPa, x1 = 0.04242 | 0.594
298.15 K, 100 kPa, x1 = 0.1098 | 0.672
298.15 K, 100 kPa, x1 = 0.1552 | 0.728
298.15 K, 100 kPa, x1 = 0.1966 | 0.784
298.15 K, 100 kPa, x1 = 0.2342 | 0.843
298.15 K, 100 kPa, x1 = 0.3571 | 1.06
298.15 K, 100 kPa, x1 = 0.4211 | 1.2
298.15 K, 100 kPa, x1 = 0.4775 | 1.33
298.15 K, 100 kPa, x1 = 0.5097 | 1.42
298.15 K, 100 kPa, x1 = 0.5776 | 1.6
298.15 K, 100 kPa, x1 = 0.6744 | 1.9
298.15 K, 100 kPa, x1 = 0.7135 | 2.03
298.15 K, 100 kPa, x1 = 0.8191 | 2.45
298.15 K, 100 kPa, x1 = 0.8522 | 2.6
298.15 K, 100 kPa, x1 = 0.9099 | 2.86
298.15 K, 101 kPa, x1 = 0.1 | 0.746
298.15 K, 101 kPa, x1 = 0.2 | 0.861
298.15 K, 101 kPa, x1 = 0.3 | 1.055
298.15 K, 101 kPa, x1 = 0.3966 | 1.247
298.15 K, 101 kPa, x1 = 0.4978 | 1.484
298.15 K, 101 kPa, x1 = 0.6 | 1.749
298.15 K, 101 kPa, x1 = 0.7 | 2.067
298.15 K, 101 kPa, x1 = 0.7988 | 2.431
298.15 K, 101 kPa, x1 = 0.902 | 2.874
303.15 K, 101.3 kPa, x1 = 0.0714 | 0.55
303.15 K, 101.3 kPa, x1 = 0.1586 | 0.63
303.15 K, 101.3 kPa, x1 = 0.2422 | 0.74
303.15 K, 101.3 kPa, x1 = 0.32 | 0.85
303.15 K, 101.3 kPa, x1 = 0.3836 | 0.95
303.15 K, 101.3 kPa, x1 = 0.5273 | 1.2
303.15 K, 101.3 kPa, x1 = 0.5975 | 1.4
303.15 K, 101.3 kPa, x1 = 0.6822 | 1.6
303.15 K, 101.3 kPa, x1 = 0.7619 | 1.8
303.15 K, 101.3 kPa, x1 = 0.8279 | 2
303.15 K, 101.3 kPa, x1 = 0.917 | 2.3
308.15 K, 101.3 kPa, x1 = 0.0714 | 0.51
308.15 K, 101.3 kPa, x1 = 0.1586 | 0.59
308.15 K, 101.3 kPa, x1 = 0.2422 | 0.68
308.15 K, 101.3 kPa, x1 = 0.32 | 0.78
308.15 K, 101.3 kPa, x1 = 0.3836 | 0.87
308.15 K, 101.3 kPa, x1 = 0.5273 | 1.1
308.15 K, 101.3 kPa, x1 = 0.5975 | 1.2
308.15 K, 101.3 kPa, x1 = 0.6822 | 1.4
308.15 K, 101.3 kPa, x1 = 0.7619 | 1.6
308.15 K, 101.3 kPa, x1 = 0.8279 | 1.8
308.15 K, 101.3 kPa, x1 = 0.917 | 2.1
313.15 K, 101 kPa, x1 = 0.1 | 0.584
313.15 K, 101 kPa, x1 = 0.2 | 0.685
313.15 K, 101 kPa, x1 = 0.3 | 0.818
313.15 K, 101 kPa, x1 = 0.3966 | 0.995
313.15 K, 101 kPa, x1 = 0.4978 | 1.116
313.15 K, 101 kPa, x1 = 0.6 | 1.307
313.15 K, 101 kPa, x1 = 0.7 | 1.538
313.15 K, 101 kPa, x1 = 0.7988 | 1.78
313.15 K, 101 kPa, x1 = 0.902 | 2.09
313.15 K, 101.3 kPa, x1 = 0.0714 | 0.48
313.15 K, 101.3 kPa, x1 = 0.1586 | 0.54
313.15 K, 101.3 kPa, x1 = 0.2422 | 0.63
313.15 K, 101.3 kPa, x1 = 0.32 | 0.72
313.15 K, 101.3 kPa, x1 = 0.3836 | 0.8
313.15 K, 101.3 kPa, x1 = 0.5273 | 1.02
313.15 K, 101.3 kPa, x1 = 0.5975 | 1.1
313.15 K, 101.3 kPa, x1 = 0.6822 | 1.3
313.15 K, 101.3 kPa, x1 = 0.7619 | 1.4
313.15 K, 101.3 kPa, x1 = 0.8279 | 1.6
313.15 K, 101.3 kPa, x1 = 0.917 | 1.9
318.15 K, 101.3 kPa, x1 = 0.0714 | 0.46
318.15 K, 101.3 kPa, x1 = 0.1586 | 0.51
318.15 K, 101.3 kPa, x1 = 0.2422 | 0.58
318.15 K, 101.3 kPa, x1 = 0.32 | 0.67
318.15 K, 101.3 kPa, x1 = 0.3836 | 0.73
318.15 K, 101.3 kPa, x1 = 0.5273 | 0.92
318.15 K, 101.3 kPa, x1 = 0.5975 | 1.01
318.15 K, 101.3 kPa, x1 = 0.6822 | 1.1
318.15 K, 101.3 kPa, x1 = 0.7619 | 1.3
318.15 K, 101.3 kPa, x1 = 0.8279 | 1.4
318.15 K, 101.3 kPa, x1 = 0.917 | 1.6
323.15 K, 101.3 kPa, x1 = 0.0714 | 0.42
323.15 K, 101.3 kPa, x1 = 0.1586 | 0.47
323.15 K, 101.3 kPa, x1 = 0.2422 | 0.54
323.15 K, 101.3 kPa, x1 = 0.32 | 0.6
323.15 K, 101.3 kPa, x1 = 0.3836 | 0.66
323.15 K, 101.3 kPa, x1 = 0.5273 | 0.8
323.15 K, 101.3 kPa, x1 = 0.5975 | 0.86
323.15 K, 101.3 kPa, x1 = 0.6822 | 0.96
323.15 K, 101.3 kPa, x1 = 0.7619 | 1.07
323.15 K, 101.3 kPa, x1 = 0.8279 | 1.2
323.15 K, 101.3 kPa, x1 = 0.917 | 1.3
